One compound from US4595535A, “Diazacycloalkyl-1,2,4-triazolo[2,3-c][1,3]benzodiazepines useful as neuroleptic and/or antihistaminic agents” (Ciba-Geigy Corporation, priority 1984, dated 1986) can be followed below.

The test system of series [1] is extrapyramidal side effects, e.g. dyskinesias and dystonias. Briefly: extrapyramidal side effects in the monkey. The series is classed as in vivo. The following applies: at effective antipsychotic doses.
Series [2] concerns avoidance behaviour in rats. Briefly: conditioned avoidance behaviour (lever press to avoid foot shock), rats. The series is classed as in vivo. The following applies: Rattus norvegicus, oral, read-out: oral dose that disrupts avoidance behaviour (decreases avoidance responses). The procedure: (§1) Each lever press postpones the shock for 30 seconds. Whenever the animal fails to press the lever once within said period, brief (0.5 sec.) shocks are delivered at 15 second intervals until the animal again presses the lever. Under control conditions the animals press the lever at a moderately steady rate and seldom receive more than five or six shocks during a 25-minute (rats) and up to 4-hour experimental session. Said compounds evaluated for neuroleptic activity, are administered to the animals 30, 90, 210 minutes prior to the experimental session and block the learned conditioned avoidance behaviour, manifested by a decrease in avoidance responding with a marked increase in shocks taken by the animal. Both the avoidance responses and failures (shocks received) are recorded separately for evaluation.
(§2) Indicative of the antipsychotic utility of the compounds of this invention, e.g. the compound of example 1, namely 2-methyl-5-(4-methyl-1-piperazinyl)-11H-1,2,4-triazolo[2,3-c][1,3]benzodiazepine maleate, disrupts avoidance behaviour, e.g. decreases avoidance responses in rats and monkeys at an oral dose of about 1.0 mg/kg or lower.

Series [3] deals with avoidance behaviour in monkeys. Briefly: conditioned avoidance behaviour (lever press to avoid foot shock), monkeys. The following applies: Primates, oral, read-out: oral dose that disrupts avoidance behaviour (decreases avoidance responses). It is filed as in vivo, squirrel monkeys. How it is done: as §1, §2
For series [4], the target named is histamine activation of adenylate cyclase. The experiment in a line: inhibition of histamine activation of adenylate cyclase in vesicles from guinea pig cerebral cortex. The series is classed as biochemical. The following applies: 50 micromolar histamine, 3H-cyclic AMP synthesis. How it is done: Finally, said antihistaminic properties can be shown in vitro, e.g., according to Chasin et al., J. Neurochem. 22, 1031 (1974). Vesicles from a cell free preparation of guinea pig cerebral cortex are preincubated with ^3 H-adenine to form endogenous ^3 H-adenosine triphosphate. The vesicles are then incubated with 50 micromolar histamine to activate ^3 H-cyclic adenosine monophosphate synthesis in the absence or presence of the test compound at a concentration between 0.01 and 100 micromolar. When said compound is active, it inhibits the histamine activation of adenylate cyclase. The IC50 represents the concentration at which histamine activation is inhibited by 50%.

What is called IC50 is the concentration at which inhibition is half-maximal. As for `Cc1nc2n(n1)C(N1CCN(C)CC1)=Nc1ccccc1C2.O=C(O)/C=C\C(=O)O` [Example 1, 2-methyl-5-(4-methyl-1-piperazinyl)-11H-1,2,4-triazolo[2,3-c][1,3]-benzodiazepine monomaleate], the “extrapyramidal side effects, e.g. dyskinesias and dystonias” value in series [1] was “essentially free of extrapyramidal side effects”. For the same compound, the minimal effective dose in series [2] and in series [3] was ≤ 1 mg/kg each time. For the same compound, the half-maximal inhibitory concentration (IC50) in series [4] is ~300 nM.
